According to patent publication US20260226071A1, “2, 4-DIANILINOPYRIMIDINE-BASED AURORA-A KINASE SELECTIVE DEGRADATION INDUCING COMPOUNDS” (UPPTHERA, INC., priority 2023, published 2026):

Assays:
[1] = tested on: NCI-H446 cell line; assay: Cell viability assay for NCI-H446 cell line; format: cell-based; settings: Homo sapiens, NCI-H446, 120 h; H446 cells, 5 days culture, EZ-Cytox; read-out: IC50 value (Level)
Summary of the method: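 Viability was measured by absorbance at 450 nm after 4 h with EZ-Cytox, following 5-day exposure of NCI-H446 cells (RPMI 1640, 10% FBS, 37 °C, 5% CO2) to 3-fold serial dilutions from 1000 nM down to 0.15 nM, added 24 h post-seeding.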

[2] = target: T1, Aurora kinase A (AURKA) (Homo sapiens, UniProt O14965); assay: Luciferase assay for AURKA in HeLa LgBit (AURKA-HiBit KI) cell line; format: cell-based; settings: HeLa LgBit (AURKA-HiBit KI) cells, measured after 12 hours
T1 construct: endogenous in cells; host or cells: HeLa LgBit (AURKA-HiBit KI), CRISPR/Cas9 knock-in at the endogenous AURKA locus
T1 sequence (O14965 1-403): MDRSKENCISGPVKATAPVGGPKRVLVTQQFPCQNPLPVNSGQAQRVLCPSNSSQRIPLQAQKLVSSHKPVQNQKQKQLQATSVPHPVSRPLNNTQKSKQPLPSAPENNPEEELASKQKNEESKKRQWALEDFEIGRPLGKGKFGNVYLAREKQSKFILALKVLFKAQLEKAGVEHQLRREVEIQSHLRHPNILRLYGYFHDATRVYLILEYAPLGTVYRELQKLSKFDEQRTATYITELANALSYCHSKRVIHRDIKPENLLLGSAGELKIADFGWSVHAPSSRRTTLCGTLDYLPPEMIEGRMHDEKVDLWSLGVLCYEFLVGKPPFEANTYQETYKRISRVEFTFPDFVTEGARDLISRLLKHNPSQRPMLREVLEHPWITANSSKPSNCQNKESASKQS
Summary of the method: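 Test compounds (10 nM or 100 nM) added to AURKA-HiBit knock-in HeLa LgBit cells that had been pre-loaded with Endurazine for 2 h following an 18 h culture at 3×10^4 cells. Endogenous AURKA-HiBit level followed by luminescence (470-480 nm), measured after 12 h.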

| SMILES | IC50 [1] | luminescence value (Level) ([2]; 10 nM compound) | luminescence value (Level) ([2]; 100 nM compound) |
| --- | --- | --- | --- |
| CN(CC1CCN(c2ccc(C3CCC(=O)NC3=O)cc2F)CC1)[C@H]1CC[C@H](NC(=O)c2ccc(Nc3ncc(F)c(Nc4ccc(C(=O)Nc5ccccc5Cl)cc4)n3)cc2)CC1 (stereo partly drawn) [Compound 80, N-(2-chlorophenyl)-4-((2-((4-(((1r,4r)-4-(((1-(4-(2,6-dioxopiperidin-3-yl)-2-fluorophenyl)piperidin-4-yl)methyl)(methyl)amino)cyclohexyl)carbamoyl)phenyl)amino)-5-fluoropyrimidin-4-yl)amino)benzamide] | 50 to 100 nM | A (A is <0.3) | A (A is <0.2) |
| O=C1CCC(c2ccc(N3CC4(CCN(CC5CCN(NC(=O)c6ccc(Nc7ncc(F)c(Nc8ccc(C(=O)Nc9ccccc9Cl)cc8)n7)cc6)CC5)CC4)C3)c(F)c2)C(=O)N1 (stereo not drawn) [Compound 78, N-(2-chlorophenyl)-4-[[2-[4-[[4-[[2-[4-(2,6-dioxo-3-piperidyl)-2-fluoro-phenyl]-2,7-diazaspiro[3.5]nonan-7-yl]methyl]-1-piperidyl]carbamoyl]anilino]-5-fluoro-pyrimidin-4-yl]amino]benzamide] | 50 to 100 nM | B (B is 0.3 to 0.5) | A (A is <0.2) |
| O=C1CCC(c2ccc(N3CCN(CC(=O)N4CCC(NC(=O)c5ccc(Nc6ncc(F)c(Nc7ccc(C(=O)Nc8ccccc8Cl)cc7)n6)cc5)CC4)CC3)cc2)C(=O)N1 (stereo not drawn) [Compound 5, N-(2-chlorophenyl)-4-((2-((4-((1-(2-(4-(4-(2,6-dioxopiperidin-3-yl)phenyl)piperazin-1-yl)acetyl)piperidin-4-yl)carbamoyl)phenyl)amino)-5-fluoropyrimidin-4-yl)amino)benzamide] | < 50 nM | B (B is 0.3 to 0.5) | A (A is <0.2) |
| O=C1CCC(c2ccc(N3CCN(CCN4CCC(C(=O)Nc5ccc(Nc6ncc(F)c(Nc7ccc(C(=O)Nc8ccccc8Cl)cc7)n6)cc5)CC4)CC3)cc2)C(=O)N1 (stereo not drawn) [Compound 70, N-(4-((4-((4-((2-chlorophenyl)carbamoyl)phenyl)amino)-5-fluoropyrimidin-2-yl)amino)phenyl)-1-(2-(4-(4-(2,6-dioxopiperidin-3-yl)phenyl)piperazin-1-yl)ethyl)piperidine-4-carboxamide] | 50 to 100 nM | A (A is <0.3) | A (A is <0.2) |
| O=C1CCC(c2ccc(N3CCC(CN4CC5(CCN(NC(=O)c6ccc(Nc7ncc(F)c(Nc8ccc(C(=O)Nc9ccccc9Cl)cc8)n7)cc6)CC5)C4)CC3)c(F)c2)C(=O)N1 (stereo not drawn) [Compound 97, N-(2-chlorophenyl)-4-((2-((4-((2-((1-(4-(2,6-dioxopiperidin-3-yl)-2-fluorophenyl)piperidin-4-yl)methyl)-2,7-diazaspiro[3.5]nonan-7-yl)carbamoyl)phenyl)amino)-5-fluoropyrimidin-4-yl)amino)benzamide] | 50 to 100 nM | B (B is 0.3 to 0.5) | A (A is <0.2) |
| O=C1CCC(c2ccc(N3CCN(CCC4CCN(NC(=O)c5ccc(Nc6ncc(F)c(Nc7ccc(C(=O)Nc8ccccc8Cl)cn7)n6)cc5)CC4)CC3)cc2)C(=O)N1 (stereo not drawn) [Compound 98, N-(2-chlorophenyl)-6-((2-((4-((4-(2-(4-(4-(2,6-dioxopiperidin-3-yl)phenyl)piperazin-1-yl)ethyl)piperidin-1-yl)carbamoyl)phenyl)amino)-5-fluoropyrimidin-4-yl)amino) nicotinamide] | 100 to 150 nM | A (A is <0.3) | A (A is <0.2) |
| O=C1CCC(c2cc(F)c(N3CCN(CCC4CCN(NC(=O)c5ccc(Nc6ncc(F)c(Nc7ccc(NC(=O)c8ccccc8F)cc7)n6)cc5F)CC4)CC3)cc2F)C(=O)N1 (stereo not drawn) [Compound 112, N-[4-[2-[4-[4-(2,6-dioxo-3-piperidyl)-2,5-difluoro-phenyl]piperazin-1-yl]ethyl]-1-piperidyl]-2-fluoro-4-[[5-fluoro-4-[4-[(2-fluorobenzoyl)amino]anilino]pyrimidin-2-yl]amino]benzamide] | < 50 nM | A (A is <0.3) | A (A is <0.2) |
| O=C1CCC(c2ccc(N3CCC(CN4CC5(CC(NC(=O)c6ccc(Nc7ncc(F)c(Nc8ccc(C(=O)Nc9ccccc9Cl)cc8)n7)cc6)C5)C4)CC3)c(F)c2)C(=O)N1 (stereo not drawn) [Compound 77, N-(2-chlorophenyl)-4-((2-((4-((2-((1-(4-(2,6-dioxopiperidin-3-yl)-2-fluorophenyl)piperidin-4-yl)methyl)-2-azaspiro[3.3]heptan-6-yl)carbamoyl)phenyl)amino)-5-fluoropyrimidin-4-yl)amino)benzamide] | 50 to 100 nM | A (A is <0.3) | A (A is <0.2) |
| O=C1CCC(c2ccc(N3CCN(CC[C@H]4CC[C@H](NC(=O)c5ccc(Nc6ncc(F)c(Nc7ccc(C(=O)Nc8ccccc8Cl)cc7)n6)cc5)CC4)CC3)c(F)c2)C(=O)N1 (stereo partly drawn) [Compound 74, N-(2-chlorophenyl)-4-((2-((4-(((1r,4r)-4-(2-(4-(4-(2,6-dioxopiperidin-3-yl)-2-fluorophenyl)piperazin-1-yl)ethyl)cyclohexyl)carbamoyl)phenyl)amino)-5-fluoropyrimidin-4-yl)amino)benzamide] | < 50 nM | B (B is 0.3 to 0.5) | A (A is <0.2) |
| O=C1CCC(c2ccc(N3CCN(Cc4ccc(NC(=O)c5ccc(Nc6ncc(F)c(Nc7ccc(C(=O)Nc8ccccc8Cl)cc7)n6)cc5)cc4)CC3)cc2)C(=O)N1 (stereo not drawn) [Compound 13, N-(2-chlorophenyl)-4-((2-((4-((4-((4-(4-(2,6-dioxopiperidin-3-yl)phenyl)piperazin-1-yl)methyl)phenyl)carbamoyl)phenyl)amino)-5-fluoropyrimidin-4-yl)amino)benzamide] | > 200 nM | C (C is 0.5 to 0.7) | B (B is 0.2 to 0.4) |
| O=C1CCC(c2ccc(N3CCN(CCC4CCN(NC(=O)c5ccc(Nc6ncc(F)c(Nc7ccc(C(=O)Nc8ccccc8Cl)cc7)n6)cc5)CC4)CC3)cc2)C(=O)N1 (stereo not drawn) [Compound 7, N-(2-chlorophenyl)-4-((2-((4-((4-(2-(4-(4-(2,6-dioxopiperidin-3-yl)phenyl)piperazin-1-yl)ethyl)piperidin-1-yl)carbamoyl)phenyl)amino)-5-fluoropyrimidin-4-yl)amino)benzamide] | < 50 nM | A (A is <0.3) | A (A is <0.2) |
| CN(CC1CCN(c2ccc(C3CCC(=O)NC3=O)cc2F)CC1)C1CCN(NC(=O)c2ccc(Nc3ncc(F)c(Nc4ccc(C(=O)Nc5ccccc5Cl)cc4)n3)cc2)CC1 (stereo not drawn) [Compound 81, N-(2-chlorophenyl)-4-((2-((4-((4-(((1-(4-(2,6-dioxopiperidin-3-yl)-2-fluorophenyl)piperidin-4-yl)methyl)(methyl)amino)piperidin-1-yl)carbamoyl)phenyl)amino)-5-fluoropyrimidin-4-yl)amino)benzamide] | < 50 nM | A (A is <0.3) | A (A is <0.2) |
| CN(CC1CCN(c2ccc(NC3CCC(=O)NC3=O)cc2)CC1)[C@H]1CC[C@H](NC(=O)c2ccc(Nc3ncc(F)c(Nc4ccc(C(=O)Nc5ccccc5Cl)cc4)n3)cc2)CC1 (stereo partly drawn) [Compound 69, N-(2-chlorophenyl)-4-((2-((4-(((1r,4r)-4-(((1-(4-((2,6-dioxopiperidin-3-yl)amino)phenyl)piperidin-4-yl)methyl)(methyl)amino)cyclohexyl)carbamoyl)phenyl)amino)-5-fluoropyrimidin-4-yl)amino)benzamide] | 50 to 100 nM | A (A is <0.3) | A (A is <0.2) |
| O=C1CCC(Nc2ccc(N3CCN(CC[C@H]4CC[C@H](NC(=O)c5ccc(Nc6ncc(F)c(Nc7ccc(C(=O)Nc8ccccc8Cl)cc7)n6)cc5)CC4)CC3)c(F)c2)C(=O)N1 (stereo partly drawn) [Compound 86, N-(2-chlorophenyl)-4-((2-((4-(((1r,4r)-4-(2-(4-(4-((2,6-dioxopiperidin-3-yl)amino)-2-fluorophenyl)piperazin-1-yl)ethyl)cyclohexyl)carbamoyl)phenyl)amino)-5-fluoropyrimidin-4-yl)amino)benzamide] | 50 to 100 nM | A (A is <0.3) | A (A is <0.2) |
